In patent US12157713B2, “Conjugated oligoelectrolytes as antimicrobial agents” (Nanyang Technological University, priority 2018, dated 2024):
Where two headings read alike, the source gives them in different places.

Assays:
[1] = tested on: Pseudomonas aeruginosa ATCC 27853; experiment: Single-dose growth inhibition, Pa; assay type: cell-based
Method: (§1) Inhibition of bacterial growth was determined by measuring the absorbance at 600 nm (OD600), using a Tecan M1000 Pro monochromator plate reader. Growth inhibition was calculated for each well, relative to the reference growths determined from a negative control (media only) and positive control (bacteria without inhibitors) incubated in the same plate. A single dose of 32 μg/mL of COE (final concentration) was used for each test.
(§2) Percentage growth inhibition of an individual sample was calculated based on growth in a reference well determined from negative controls (media only) and positive controls (bacterial/fungal media without inhibitors). Negative inhibition values indicate that the growth rate (or OD600) is higher compared to the reference growth (bacteria/fungi only, set to 0% inhibition). The growth rates for all bacteria and fungi may vary at −/+10%, which were within the reported normal distribution of bacterial/fungal growth. Any significant variations (or outliers/hits) were identified by the modified Z-Score, and the active compounds were selected by a combination of inhibition values and Z-Score.
(§3) A M(i) value of >|2.5| (absolute) would classify the sample as outliers or hits. Active samples were denoted as compounds with inhibition values equal to or above 80% and absolute Z-Score above |2.5| for either replicate (n=2 on different plates). Partial active samples were denoted as compounds with inhibition values from 50% to <80%, or absolute Z-Score below |2.5|.

[2] = tested on: Klebsiella pneumoniae MDR ATCC 700603; experiment: Single-dose growth inhibition, Kp; assay type: cell-based
Method: as §1, §2, §3

E. coli K12 [3] = experiment: Epifluorescence imaging of COE-treated E. coli K12; assay type: cell-based, Escherichia coli; conditions: 32 μg/mL COE; excitation 365 nm, emission 445/50 nm
Method: E. coli K-12 was grown, collected and washed according to the procedure described above (in the uptake measurements). COE solutions (in PBS) were added to a PBS suspension of E. coli K12 (OD600=1.0) to achieve final COE concentrations of 32 μg/mL. After incubating for 2 hrs at room temperature under shaking (200 rpm), a drop of suspension was placed on a microscope slide with a cover slip (#1.5, 0.17 mm thickness) and imaged using an inverted widefield epifluorescence microscope with Plan-Apochromat 100x/1.4 phase contrast with oil immersion lens (Carl Zeiss Axio Observer Z1 Inverted Microscope). The fluorescence microscopy images were observed by collecting the fluorescence signal of COEs using the DAPI dye channel (filter set 49 DAPI with excitation peak at 365 nm and emission at 445/50 nm). The bright field images of cells were obtained at exact same location using phase contrast transmitted light technique (Plan-Apochromat 100x/1.4 phase contrast with oil immersion lens). The cell images treated by different COEs were obtained under identical conditions with the matching irradiation frequency and exposure time.
Epi-fluorescence images of the COE-treated E. coli K12 cells were acquired by excitation at λ=365 nm and collecting emission at λ=445/50 nm.

[4] = tested on: Staphylococcus aureus MRSA ATCC 43300; experiment: Single-dose growth inhibition, Sa; assay type: cell-based
Method: as §1, §2, §3

[5] = tested on: organism classes (Gram-negative, Gram-positive and fungi); experiment: Single-dose screening summary by organism class; assay type: cell-based; conditions: 32 μg/mL; 0 = no activity
Method: as §2
Z-Score analysis was carried out to investigate outliers or hits among the samples. The Z-Score was calculated based on the sample population using a modified Z-Score method which accounts for possible skewed sample population. The modified method uses median and MAD ([…]) instead of average and standard deviation, and a scaling factor (Iglewicz, B. & Hoaglin, D. C. Volume 16: How to Detect and Handle Outliers. The ASQC Basic Reference in Quality Control: Statistical Techniques, 1993). The equation to calculate the modified Z-Score value is as follow: […]
as §3

[6] = tested on: Candida albicans ATCC 90028; experiment: Single-dose growth inhibition, Ca; assay type: cell-based
Method: Growth inhibition of C. albicans was determined by measuring the absorbance at 530 nm (OD530), while the growth inhibition of C. neoformans was determined by measuring the difference in absorbance between 600 and 570 nm (OD600-570), after the addition of resazurin (0.001 wt. % final concentration) and incubation at 35° C. for additional 2 hrs. The absorbance was measured using a Biotek Synergy HTX plate reader. The relative growth inhibition was calculated for each well, relative to that determined from a negative control (media only) and positive control (bacteria without inhibitors) on the same plate as references. A single dose of 32 μg/mL of COE (final concentration) was used for each test.
as §2, §3

[7] = tested on: Escherichia coli FDA control ATCC 25922; experiment: Single-dose growth inhibition, Ec; assay type: cell-based
Method: as §1, §2, §3

E. coli K12 [8] = experiment: SEM of COE-treated E. coli K12; assay type: cell-based, Escherichia coli; conditions: 32 μg mL^−1 COE, 2 hrs
Method: E. coli K-12 was grown, collected and washed according to the procedure described above (in the uptake measurements). COE solutions (in PBS) were added to a PBS suspension of E. coli K12 (OD600=1.0) to achieve final COE concentrations of 32 μg/mL. After incubating for 2 hrs at room temperature under shaking (200 rpm), the microbes were immediately fixed with 2.5% glutaraldehyde solution at 4° C. overnight. 10 μL of the fixed bacteria suspension was spotted onto the SEM conducting paste and left to dry in air. The bacteria samples were dehydrated with a series of increasingly concentrated ethanol solution (20%-100%). After drying overnight, the samples were coated with platinum and imaged with FESEM (JEOL JSM-6700F) to characterise the morphology of the samples.
Characterisation of treated E. coli K12 by scanning electron microscopy (SEM) COE-treated cells were characterised by SEM. E. coli K12 ([…]) were treated with 32 μg mL^−1 of each COE. […] This is consistent with the proposal that COE insertion disrupts membrane integrity and this effect is of a greater magnitude for COE-D8.

[9] = ATCC27853, read-out: Growth inhibition Pa
[10] = ATCC700603, read-out: Growth inhibition Kp
[11] = ATCC90028, read-out: Growth inhibition Ca
[12] = ATCC25922, read-out: Growth inhibition Ec
[13] = ATCC27853, 32 μg/mL single dose, n=2, read-out: Growth inhibition Pa
[14] = ATCC700603, 32 μg/mL single dose, n=2, read-out: Growth inhibition Kp
[15] = 32 μg/mL single dose, n=2, read-out: Growth inhibition Sa
[16] = ATCC90028, 32 μg/mL single dose, n=2, read-out: Growth inhibition Ca
[17] = ATCC25922, 32 μg/mL single dose, n=2, read-out: Growth inhibition Ec

SMILES: C[N+](C)(C)CCCCOc1ccc(/C=C/c2ccc(OCCCC[N+](C)(C)C)cc2)cc1 [COE-D4]
- inhibition at 32 µg/mL [1, 9]: < 50%
- inhibition at 32 µg/mL [2, 10]: < 50%
- Fluorescence intensity of treated E. coli K12 cells relative to background (E. coli K12 [3]): indistinct image
- inhibition at 32 µg/mL ([4]; read-out: Growth inhibition Sa): > 80%
- Activity: number of organism classes the compound has been found active against [5]: 2
- inhibition at 32 µg/mL [6, 11]: < 50%
- inhibition at 32 µg/mL [7, 12]: < 50%
- Morphology of treated E. coli K12 by SEM (E. coli K12 [8]): rod-shaped cells with smooth outer surfaces

SMILES: C[N+](C)(C)CCCCCCOc1ccc(/C=C/c2ccc(OCCCCCC[N+](C)(C)C)cc2)cc1 [COE-D6]
- inhibition at 32 µg/mL [1, 9]: < 50%
- inhibition at 32 µg/mL [2, 10]: < 50%
- Fluorescence intensity of treated E. coli K12 cells relative to background (E. coli K12 [3]): intermediate fluorescence intensity
- inhibition at 32 µg/mL ([4]; read-out: Growth inhibition Sa): > 80%
- Activity: number of organism classes the compound has been found active against [5]: 3
- inhibition at 32 µg/mL [6, 11]: > 80%
- inhibition at 32 µg/mL [7, 12]: > 80%
- Morphology of treated E. coli K12 by SEM (E. coli K12 [8]): pitting and membrane rupture

SMILES: C[N+](C)(C)CCCCCCCCOc1ccc(/C=C/c2ccc(OCCCCCCCC[N+](C)(C)C)cc2)cc1 [COE-D8]
- inhibition at 32 µg/mL [1, 9]: 50 to 80%
- inhibition at 32 µg/mL [2, 10]: 50 to 80%
- Fluorescence intensity of treated E. coli K12 cells relative to background (E. coli K12 [3]): highest fluorescence intensities
- inhibition at 32 µg/mL ([4]; read-out: Growth inhibition Sa): > 80%
- Activity: number of organism classes the compound has been found active against [5]: 3
- inhibition at 32 µg/mL [6, 11]: > 80%
- inhibition at 32 µg/mL [7, 12]: > 80%
- Morphology of treated E. coli K12 by SEM (E. coli K12 [8]): pitting and membrane rupture

SMILES: CN(C)CC[N+](C)(C)CCCCCCOc1ccc(/C=C/c2ccc(OCCCCCC[N+](C)(C)CCN(C)C)cc2)cc1 [COE-D62N]
- inhibition at 32 µg/mL [1, 13]: < 50%
- inhibition at 32 µg/mL [2, 14]: < 50%
- inhibition at 32 µg/mL [4, 15]: > 80%
- Activity: number of organism classes the compound has been found active against [5]: 3
- inhibition at 32 µg/mL [6, 16]: > 80%
- inhibition at 32 µg/mL [7, 17]: > 80%

SMILES: CN(C)CC[N+](C)(C)CCCCCCCCOc1ccc(/C=C/c2ccc(OCCCCCCCC[N+](C)(C)CCN(C)C)cc2)cc1 [COE-D82N]
- inhibition at 32 µg/mL [1, 13]: 50 to 80%
- inhibition at 32 µg/mL [2, 14]: > 80%
- inhibition at 32 µg/mL [4, 15]: > 80%
- Activity: number of organism classes the compound has been found active against [5]: 3
- inhibition at 32 µg/mL [6, 16]: > 80%
- inhibition at 32 µg/mL [7, 17]: > 80%
